According to the supplement of paper PMC10307832:

The cell lines below were run with CC(C)C[C@@H](C(=O)N[C@H](C(=O)OC1CCCC1)c1ccccc1)[C@H](O)C(=O)NO [Tosedostat] + NC(=O)Nc1cc(-c2cccc(F)c2)sc1C(=O)N[C@H]1CCCNC1 [AZD7762] (partner 0.2 µM) (assay: relative viability (nuclei count vs DMSO), 5 days (fraction); higher = more cells survive). Details: first compound 0.02 µM.
Procedure, shortened: (§1)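 Relative viability was taken as the ratio of nuclei in treated wells to nuclei in vehicle wells. Lung cancer cell lines in 1536-well plates received compounds by pin tool one day after seeding, either one drug alone or a fixed anchor-drug dose plus five library-drug doses (not always all listed) in √10 steps. Nuclei were counted on 4× images after 5 days of treatment, and values are medians of duplicate plates.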
H3255 showed a relative viability of 1.04.
LU99A showed a relative viability of 0.369.
With ChaGo-K-1 the relative viability was 0.957.
NCI-H2170 gave a relative viability of 0.85.
NCI-H460 showed a relative viability of 0.728.
In the case of HCC-44, the relative viability is reported as 1.08.
SW 900 showed a relative viability of 0.56.
Work on NCI-H1648 yielded a relative viability of 0.678.

Same assay, conditions: first compound 0.06325 µM
Work on NCI-H522 yielded a relative viability of 0.907.
NCI-H1703 was tested, and the relative viability was 0.133.
In the case of NCI-H1792, the relative viability is reported as 0.77.
NCI-H2087 gave a relative viability of 1.31.
For NCI-H596, the relative viability was 1.21.
Cell Line NCI-H1355 has a relative viability of 0.703.
LCLC-103H was tested, and the relative viability was 0.713.
With NCI-H727 the relative viability was 0.559.
Cell Line NCI-H2405 has a relative viability of 0.744.
With EMC-BAC-2 the relative viability was 1.02.
NCI-H23 showed a relative viability of 0.248.
For HCC-366, the relative viability was 0.34.
Cell Line NCI-H1755 has a relative viability of 0.462.
In the case of NCI-H838, the relative viability is reported as 0.928.
In the case of LK-2, the relative viability is reported as 0.475.
For NCI-H2347, the relative viability was 0.821.
NCI-H2342 was tested, and the relative viability was 0.599.
Work on H3255 yielded a relative viability of 0.919.
Cell Line LU99A has a relative viability of 0.333.
In the case of ChaGo-K-1, the relative viability is reported as 0.889.
NCI-H2170 showed a relative viability of 0.94.
Cell Line NCI-H460 has a relative viability of 0.66.
Cell Line HCC-44 has a relative viability of 1.
SW 900 was tested, and the relative viability was 0.603.
NCI-H1648 showed a relative viability of 0.735.

Same assay, conditions: first compound 0.2 µM
Cell Line NCI-H522 has a relative viability of 0.953.
NCI-H1703 gave a relative viability of 0.138.
NCI-H1792 showed a relative viability of 0.606.
Work on NCI-H2087 yielded a relative viability of 1.22.
NCI-H596 gave a relative viability of 1.13.
NCI-H1355 gave a relative viability of 0.72.
LCLC-103H was tested, and the relative viability was 0.69.
In the case of NCI-H727, the relative viability is reported as 0.65.
NCI-H2405 gave a relative viability of 0.718.
For EMC-BAC-2, the relative viability was 1.1.
Work on NCI-H23 yielded a relative viability of 0.232.
Work on HCC-366 yielded a relative viability of 0.428.
For NCI-H1755, the relative viability was 0.398.
In the case of NCI-H838, the relative viability is reported as 0.893.
LK-2 showed a relative viability of 0.381.
In the case of NCI-H2347, the relative viability is reported as 0.863.
With NCI-H2342 the relative viability was 0.446.
Cell Line H3255 has a relative viability of 0.953.
LU99A gave a relative viability of 0.374.
With ChaGo-K-1 the relative viability was 0.81.
NCI-H2170 was tested, and the relative viability was 0.948.
With NCI-H460 the relative viability was 0.709.
Work on HCC-44 yielded a relative viability of 1.03.
With SW 900 the relative viability was 0.644.
NCI-H1648 gave a relative viability of 0.768.

Same assay, conditions: first compound 0.6325 µM
With NCI-H522 the relative viability was 0.827.
NCI-H1703 was tested, and the relative viability was 0.122.
For NCI-H1792, the relative viability was 0.644.
In the case of NCI-H2087, the relative viability is reported as 1.2.
In the case of NCI-H596, the relative viability is reported as 1.17.
In the case of NCI-H1355, the relative viability is reported as 0.606.
LCLC-103H showed a relative viability of 0.77.
Work on NCI-H727 yielded a relative viability of 0.669.
In the case of NCI-H2405, the relative viability is reported as 0.652.
EMC-BAC-2 showed a relative viability of 1.07.
NCI-H23 gave a relative viability of 0.202.
For HCC-366, the relative viability was 0.361.
NCI-H1755 showed a relative viability of 0.407.
NCI-H838 showed a relative viability of 0.973.
In the case of LK-2, the relative viability is reported as 0.354.
With NCI-H2347 the relative viability was 0.745.
NCI-H2342 gave a relative viability of 0.41.
Work on H3255 yielded a relative viability of 0.81.
LU99A gave a relative viability of 0.293.
Work on ChaGo-K-1 yielded a relative viability of 0.767.
NCI-H2170 was tested, and the relative viability was 0.976.
NCI-H460 was tested, and the relative viability was 0.665.
HCC-44 showed a relative viability of 1.06.
With SW 900 the relative viability was 0.661.
Cell Line NCI-H1648 has a relative viability of 0.538.

Same assay, conditions: first compound 2 µM
NCI-H522 was tested, and the relative viability was 0.738.
NCI-H1703 gave a relative viability of 0.0985.
Cell Line NCI-H1792 has a relative viability of 0.586.
NCI-H2087 showed a relative viability of 1.24.
NCI-H596 was tested, and the relative viability was 1.2.
NCI-H1355 showed a relative viability of 0.621.
Work on LCLC-103H yielded a relative viability of 0.852.
With NCI-H727 the relative viability was 0.53.
Cell Line NCI-H2405 has a relative viability of 0.715.
In the case of EMC-BAC-2, the relative viability is reported as 0.859.
For NCI-H23, the relative viability was 0.253.
In the case of HCC-366, the relative viability is reported as 0.485.
With NCI-H1755 the relative viability was 0.347.
NCI-H838 was tested, and the relative viability was 1.
In the case of LK-2, the relative viability is reported as 0.617.
For NCI-H2347, the relative viability was 0.682.
Work on NCI-H2342 yielded a relative viability of 0.432.
Work on H3255 yielded a relative viability of 0.746.
LU99A showed a relative viability of 0.297.
With ChaGo-K-1 the relative viability was 0.603.
For NCI-H2170, the relative viability was 0.892.
In the case of NCI-H460, the relative viability is reported as 0.705.
HCC-44 gave a relative viability of 0.965.
SW 900 was tested, and the relative viability was 0.556.
In the case of NCI-H1648, the relative viability is reported as 0.509.

What follows are cell lines tested with CC(C)C[C@@H](C(=O)N[C@H](C(=O)OC1CCCC1)c1ccccc1)[C@H](O)C(=O)NO [Tosedostat] + Cc1cc(Nc2cc(N3CCN(C)CC3)nc(Sc3ccc(NC(=O)C4CC4)cc3)n2)n[nH]1 [Tozasertib] (partner 0.1 µM) in the same assay as above. Details: first compound 0.02 µM.
Procedure, shortened: as §1
NCI-H522 was tested, and the relative viability was 0.561.
Cell Line NCI-H1623 has a relative viability of 0.41.
SK-LU-1 showed a relative viability of 0.356.
NCI-H2087 showed a relative viability of 0.301.
NCI-H596 showed a relative viability of 0.893.
NCI-H1355 gave a relative viability of 0.63.
Cell Line SW 1573 has a relative viability of 0.183.
LCLC-103H was tested, and the relative viability was 0.508.
NCI-H727 showed a relative viability of 0.586.
Work on NCI-H2405 yielded a relative viability of 0.764.
With EMC-BAC-2 the relative viability was 0.281.
In the case of NCI-H23, the relative viability is reported as 0.491.
HCC-366 showed a relative viability of 0.113.
Work on NCI-H1755 yielded a relative viability of 0.665.
NCI-H838 gave a relative viability of 0.273.
Work on LK-2 yielded a relative viability of 0.17.
NCI-H2347 was tested, and the relative viability was 0.519.
NCI-H2342 gave a relative viability of 0.489.
Work on SK-MES-1 yielded a relative viability of 1.01.
In the case of H3255, the relative viability is reported as 0.575.
Cell Line COR-L23 has a relative viability of 0.214.
For COR-L 105, the relative viability was 0.359.
LU99A showed a relative viability of 0.253.
ChaGo-K-1 was tested, and the relative viability was 0.241.
With NCI-H2170 the relative viability was 0.737.
NCI-H460 showed a relative viability of 0.313.
Cell Line HCC-44 has a relative viability of 1.18.
SW 900 showed a relative viability of 0.573.
NCI-H1648 showed a relative viability of 0.518.
NCI-H661 was tested, and the relative viability was 0.354.
For NCI-H2023, the relative viability was 0.378.
NCI-H2009 was tested, and the relative viability was 0.821.
Cell Line NCI-H520 has a relative viability of 0.448.
NCI-H2228 was tested, and the relative viability was 0.375.
With NCI-H1650 the relative viability was 0.333.

Same assay, conditions: first compound 0.06325 µM
NCI-H522 was tested, and the relative viability was 0.566.
With NCI-H1623 the relative viability was 0.42.
With SK-LU-1 the relative viability was 0.282.
NCI-H2087 showed a relative viability of 0.284.
In the case of NCI-H596, the relative viability is reported as 0.875.
Cell Line NCI-H1355 has a relative viability of 0.55.
SW 1573 showed a relative viability of 0.193.
LCLC-103H showed a relative viability of 0.512.
NCI-H727 gave a relative viability of 0.535.
In the case of NCI-H2405, the relative viability is reported as 0.737.
EMC-BAC-2 gave a relative viability of 0.27.
NCI-H23 was tested, and the relative viability was 0.347.
HCC-366 gave a relative viability of 0.113.
Cell Line NCI-H1755 has a relative viability of 0.578.
Cell Line NCI-H838 has a relative viability of 0.262.
